System: FLT3 ITD
Assay: SelectScreen LanthaScreen
Format: binding
Details: 1 µM
Summary of the method: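 Percent values come from Thermo SelectScreen profiling of NU5455, combining activity and binding assays. CSF1R was run in Z'LYTE format at Km app ATP, and CAMK1 in Adapta format with ATP listed at 10.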

CN(C(=O)CN1CCOCC1)c1ccc2sc3c(-c4cccc5c(=O)cc(N6CC7CCC(C6)O7)oc45)cccc3c2c1 [NU5455]
% displacement: -11.6%
